{"source": "paper PMC10337138", "about": "(Acta Neuropathologica Communications, 2023)", "conditions_in_all_cases": "1 mM ATP; inhibitor", "key": {"ITK": {"target": "ITK (Homo sapiens, UniProt Q08881)", "description": "(§1) Kinase selectivity panel Kinome profiling was conducted by AssayQuant Technologies (Marlboro, MA) using Sox chromophore technology and Sox-based peptide substrates developed for human kinases in a 384-well format. Compounds were tested at 1 µM in the presence of 1 mM ATP."}, "CSK": {"target": "CSK (Homo sapiens, UniProt P41240)", "description": "as §1"}, "IRAK1": {"target": "IRAK1 (Homo sapiens, UniProt P51617)", "description": "as §1"}, "SRPK3/MSSK1": {"target": "SRPK3/MSSK1 (Homo sapiens, UniProt Q9UPE1)", "description": "as §1"}, "MAP3K11": {"target": "MAP3K11 (Homo sapiens, UniProt Q16584)", "description": "as §1"}, "ZNF33A/ZAK": {"target": "T1, ZNF33A/ZAK (Homo sapiens, UniProt Q9NYL2)", "T1 construct": "gene MAP3K20", "description": "as §1"}, "CAMK4": {"target": "CAMK4 (Homo sapiens, UniProt Q16566)", "description": "as §1"}, "EIF2AK3/PEK": {"target": "EIF2AK3/PEK (Homo sapiens, UniProt Q9NZJ5)", "description": "as §1"}, "PLK1": {"target": "PLK1 (Homo sapiens, UniProt P53350)", "sequence (P53350 whole entry)": "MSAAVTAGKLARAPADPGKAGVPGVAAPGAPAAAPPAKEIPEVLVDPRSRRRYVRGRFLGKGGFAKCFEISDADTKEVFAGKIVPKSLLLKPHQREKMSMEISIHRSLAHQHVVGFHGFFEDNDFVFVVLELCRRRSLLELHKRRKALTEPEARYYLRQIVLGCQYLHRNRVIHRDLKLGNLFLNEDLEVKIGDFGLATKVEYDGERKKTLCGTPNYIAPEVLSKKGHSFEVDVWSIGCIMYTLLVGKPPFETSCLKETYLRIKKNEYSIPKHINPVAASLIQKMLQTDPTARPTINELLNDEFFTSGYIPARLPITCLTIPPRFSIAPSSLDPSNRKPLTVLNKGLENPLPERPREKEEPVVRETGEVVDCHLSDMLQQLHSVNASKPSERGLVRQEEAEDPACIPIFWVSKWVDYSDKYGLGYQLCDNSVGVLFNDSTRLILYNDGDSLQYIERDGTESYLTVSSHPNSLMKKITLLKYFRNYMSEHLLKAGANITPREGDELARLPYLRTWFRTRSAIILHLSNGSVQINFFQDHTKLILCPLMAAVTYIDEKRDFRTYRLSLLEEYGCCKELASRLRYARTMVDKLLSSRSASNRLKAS", "description": "as §1"}, "EIF2AK1/HRI": {"target": "EIF2AK1/HRI (Homo sapiens, UniProt Q9BQI3)", "description": "as §1"}, "MAP3K13": {"target": "MAP3K13 (Homo sapiens, UniProt O43283)", "description": "as §1"}, "PLK2": {"target": "PLK2 (Homo sapiens, UniProt Q9NYY3)", "description": "as §1"}, "MAPKAPK2/MK2": {"target": "MAPKAPK2/MK2 (Homo sapiens, UniProt P49137)", "sequence (P49137 whole entry)": "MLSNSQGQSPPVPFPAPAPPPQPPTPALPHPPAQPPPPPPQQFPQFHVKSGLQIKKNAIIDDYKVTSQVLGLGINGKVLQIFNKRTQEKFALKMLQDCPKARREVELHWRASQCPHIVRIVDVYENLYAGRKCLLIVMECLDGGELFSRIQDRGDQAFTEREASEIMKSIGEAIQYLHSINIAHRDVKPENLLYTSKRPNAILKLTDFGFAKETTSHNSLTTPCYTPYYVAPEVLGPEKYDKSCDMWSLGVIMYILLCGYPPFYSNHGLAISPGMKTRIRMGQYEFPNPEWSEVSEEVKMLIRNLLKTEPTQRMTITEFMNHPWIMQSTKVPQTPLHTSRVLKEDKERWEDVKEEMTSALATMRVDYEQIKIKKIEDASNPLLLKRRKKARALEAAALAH", "description": "as §1"}, "PRKX": {"target": "PRKX (Homo sapiens, UniProt P51817)", "sequence (P51817 whole entry)": "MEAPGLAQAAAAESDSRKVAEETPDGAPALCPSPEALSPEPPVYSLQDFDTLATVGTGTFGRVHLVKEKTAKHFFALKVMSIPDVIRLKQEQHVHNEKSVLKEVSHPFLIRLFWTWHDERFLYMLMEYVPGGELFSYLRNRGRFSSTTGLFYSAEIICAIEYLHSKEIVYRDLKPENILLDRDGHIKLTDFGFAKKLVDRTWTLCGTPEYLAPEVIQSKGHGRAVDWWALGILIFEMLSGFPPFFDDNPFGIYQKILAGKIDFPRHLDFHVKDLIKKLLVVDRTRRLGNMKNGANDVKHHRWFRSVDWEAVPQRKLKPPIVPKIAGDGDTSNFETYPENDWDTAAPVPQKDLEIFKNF", "description": "as §1"}, "SGK1": {"target": "SGK1 (Homo sapiens, UniProt O00141)", "description": "as §1"}, "EPHA6": {"target": "EPHA6 (Homo sapiens, UniProt Q9UF33)", "description": "as §1"}, "EEF2K": {"target": "EEF2K (Homo sapiens, UniProt O00418)", "description": "as §1"}, "MASTL": {"target": "MASTL (Homo sapiens, UniProt Q96GX5)", "description": "as §1"}, "KDR": {"target": "KDR (Homo sapiens, UniProt P35968)", "description": "as §1"}, "CAMK1G": {"target": "CAMK1G (Homo sapiens, UniProt Q96NX5)", "sequence (Q96NX5 whole entry)": "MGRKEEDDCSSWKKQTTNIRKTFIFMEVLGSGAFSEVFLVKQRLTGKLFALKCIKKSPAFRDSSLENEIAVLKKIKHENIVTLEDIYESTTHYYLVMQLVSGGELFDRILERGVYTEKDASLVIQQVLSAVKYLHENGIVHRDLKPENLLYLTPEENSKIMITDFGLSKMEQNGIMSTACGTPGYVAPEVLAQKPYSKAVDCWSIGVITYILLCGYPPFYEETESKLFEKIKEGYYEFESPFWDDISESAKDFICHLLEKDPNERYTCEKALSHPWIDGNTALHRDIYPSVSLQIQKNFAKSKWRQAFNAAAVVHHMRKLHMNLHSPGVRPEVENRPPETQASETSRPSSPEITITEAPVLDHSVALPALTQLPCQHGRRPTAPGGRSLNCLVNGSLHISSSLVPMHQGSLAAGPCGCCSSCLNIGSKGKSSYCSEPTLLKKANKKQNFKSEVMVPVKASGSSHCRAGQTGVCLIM", "description": "as §1"}, "EPHA3": {"target": "EPHA3 (Homo sapiens, UniProt P29320)", "description": "as §1"}, "EPHA8": {"target": "EPHA8 (Homo sapiens, UniProt P29322)", "description": "as §1"}, "PAK4": {"target": "PAK4 (Homo sapiens, UniProt O96013)", "sequence (O96013 whole entry)": "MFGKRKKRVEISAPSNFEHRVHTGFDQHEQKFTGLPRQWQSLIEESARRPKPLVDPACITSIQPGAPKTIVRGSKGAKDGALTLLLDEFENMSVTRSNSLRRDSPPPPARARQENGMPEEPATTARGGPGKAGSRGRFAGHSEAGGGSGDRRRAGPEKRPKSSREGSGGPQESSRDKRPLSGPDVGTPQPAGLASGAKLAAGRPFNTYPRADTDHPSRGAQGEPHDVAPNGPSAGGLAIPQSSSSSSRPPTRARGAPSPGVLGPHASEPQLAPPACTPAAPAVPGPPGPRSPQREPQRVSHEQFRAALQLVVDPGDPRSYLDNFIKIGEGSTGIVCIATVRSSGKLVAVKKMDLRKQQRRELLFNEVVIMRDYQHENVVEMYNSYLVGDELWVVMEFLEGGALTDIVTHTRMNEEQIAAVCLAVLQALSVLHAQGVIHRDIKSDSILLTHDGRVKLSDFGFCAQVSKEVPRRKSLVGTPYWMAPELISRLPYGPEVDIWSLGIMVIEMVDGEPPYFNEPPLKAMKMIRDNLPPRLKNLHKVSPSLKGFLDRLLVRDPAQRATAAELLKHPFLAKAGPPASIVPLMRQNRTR", "description": "as §1"}, "CAMK2A": {"target": "CAMK2A (Homo sapiens, UniProt Q9UQM7)", "sequence (Q9UQM7 whole entry)": "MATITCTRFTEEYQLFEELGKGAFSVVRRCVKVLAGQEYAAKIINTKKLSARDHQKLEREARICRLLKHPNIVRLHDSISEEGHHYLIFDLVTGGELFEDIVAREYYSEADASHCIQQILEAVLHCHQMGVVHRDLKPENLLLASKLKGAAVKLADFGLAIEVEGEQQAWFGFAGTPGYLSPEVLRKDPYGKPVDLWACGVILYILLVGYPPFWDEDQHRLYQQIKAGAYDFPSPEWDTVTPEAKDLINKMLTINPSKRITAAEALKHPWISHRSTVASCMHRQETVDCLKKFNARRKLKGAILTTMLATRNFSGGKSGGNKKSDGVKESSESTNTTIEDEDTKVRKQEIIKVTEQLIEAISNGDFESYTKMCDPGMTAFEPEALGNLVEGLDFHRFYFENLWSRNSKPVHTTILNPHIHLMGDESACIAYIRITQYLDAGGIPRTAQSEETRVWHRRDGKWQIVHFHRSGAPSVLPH", "description": "as §1"}, "CSNK1G1/CK1G1": {"target": "CSNK1G1/CK1G1 (Homo sapiens, UniProt Q9HCP0)", "description": "as §1"}, "NEK11": {"target": "NEK11 (Homo sapiens, UniProt Q8NG66)", "description": "as §1"}, "TNK2/ACK": {"target": "TNK2/ACK (Homo sapiens, UniProt Q07912)", "description": "as §1"}, "AURKC/AURC": {"target": "AURKC/AURC (Homo sapiens, UniProt Q9UQB9)", "sequence (Q9UQB9 whole entry)": "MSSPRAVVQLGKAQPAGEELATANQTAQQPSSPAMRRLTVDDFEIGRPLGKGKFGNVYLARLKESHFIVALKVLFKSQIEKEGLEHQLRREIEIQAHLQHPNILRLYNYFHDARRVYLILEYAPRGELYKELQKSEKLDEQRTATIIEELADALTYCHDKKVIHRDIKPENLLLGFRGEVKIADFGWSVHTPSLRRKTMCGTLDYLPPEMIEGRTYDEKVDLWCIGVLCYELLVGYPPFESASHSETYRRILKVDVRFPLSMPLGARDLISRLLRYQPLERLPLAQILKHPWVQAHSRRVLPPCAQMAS", "description": "as §1"}, "CSNK1A1/CK1A1": {"target": "CSNK1A1/CK1A1 (Homo sapiens, UniProt P48729)", "description": "as §1"}, "CAMK2B": {"target": "CAMK2B (Homo sapiens, UniProt Q13554)", "description": "as §1"}, "YES": {"target": "T2, YES (Homo sapiens, UniProt P07947)", "T2 construct": "gene YES1", "T2 sequence (P07947 whole entry)": "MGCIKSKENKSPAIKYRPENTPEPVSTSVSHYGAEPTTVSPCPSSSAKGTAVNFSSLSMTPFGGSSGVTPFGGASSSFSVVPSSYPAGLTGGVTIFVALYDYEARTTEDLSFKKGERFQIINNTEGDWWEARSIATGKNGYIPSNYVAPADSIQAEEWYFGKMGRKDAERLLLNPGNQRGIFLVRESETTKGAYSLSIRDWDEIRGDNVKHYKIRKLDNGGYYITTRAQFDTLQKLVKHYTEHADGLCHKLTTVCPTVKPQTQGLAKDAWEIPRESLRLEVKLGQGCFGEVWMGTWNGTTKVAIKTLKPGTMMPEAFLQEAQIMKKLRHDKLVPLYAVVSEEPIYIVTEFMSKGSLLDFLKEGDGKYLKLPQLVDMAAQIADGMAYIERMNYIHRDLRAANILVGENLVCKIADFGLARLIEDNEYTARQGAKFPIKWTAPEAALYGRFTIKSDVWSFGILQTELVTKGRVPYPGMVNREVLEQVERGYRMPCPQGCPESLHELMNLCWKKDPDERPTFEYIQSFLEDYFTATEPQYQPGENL", "description": "as §1"}, "CRIK/CIT": {"target": "CRIK/CIT (Homo sapiens, UniProt O14578)", "description": "as §1"}, "ERBB4/HER4": {"target": "ERBB4/HER4 (Homo sapiens, UniProt Q15303)", "description": "as §1"}, "RPS6KB2/P70S6KB": {"target": "RPS6KB2/P70S6KB (Homo sapiens, UniProt Q9UBS0)", "sequence (Q9UBS0 whole entry)": "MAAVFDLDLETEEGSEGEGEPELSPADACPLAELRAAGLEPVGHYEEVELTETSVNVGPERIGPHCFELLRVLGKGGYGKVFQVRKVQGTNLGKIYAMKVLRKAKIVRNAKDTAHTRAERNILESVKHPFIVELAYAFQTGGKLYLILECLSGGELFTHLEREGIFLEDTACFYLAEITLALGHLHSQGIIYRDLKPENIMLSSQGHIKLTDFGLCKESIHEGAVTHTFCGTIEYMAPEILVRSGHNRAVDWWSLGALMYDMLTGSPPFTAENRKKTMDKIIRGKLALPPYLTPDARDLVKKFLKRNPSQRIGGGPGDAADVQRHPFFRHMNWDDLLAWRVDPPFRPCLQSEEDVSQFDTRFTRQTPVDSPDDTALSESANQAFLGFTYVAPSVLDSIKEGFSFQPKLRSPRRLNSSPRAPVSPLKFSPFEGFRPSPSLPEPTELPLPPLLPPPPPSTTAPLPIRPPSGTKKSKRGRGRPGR", "description": "as §1"}, "CDK18": {"target": "CDK18 (Homo sapiens, UniProt Q07002)", "sequence (Q07002 whole entry)": "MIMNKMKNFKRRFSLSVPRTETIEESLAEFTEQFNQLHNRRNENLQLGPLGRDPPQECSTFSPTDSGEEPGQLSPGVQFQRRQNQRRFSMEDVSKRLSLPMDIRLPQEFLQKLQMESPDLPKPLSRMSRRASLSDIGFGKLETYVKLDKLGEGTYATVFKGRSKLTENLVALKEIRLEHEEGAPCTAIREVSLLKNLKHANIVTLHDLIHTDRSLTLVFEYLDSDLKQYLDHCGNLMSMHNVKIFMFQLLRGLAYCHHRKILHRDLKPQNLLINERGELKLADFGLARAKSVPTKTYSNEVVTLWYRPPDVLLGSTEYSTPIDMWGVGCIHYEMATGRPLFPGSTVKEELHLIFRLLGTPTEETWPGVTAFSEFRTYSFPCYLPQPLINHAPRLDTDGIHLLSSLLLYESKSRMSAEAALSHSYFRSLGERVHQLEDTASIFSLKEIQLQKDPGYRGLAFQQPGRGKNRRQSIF", "description": "as §1"}, "SIK1": {"target": "SIK1 (Homo sapiens, UniProt P57059)", "description": "as §1"}, "AKT3": {"target": "AKT3 (Homo sapiens, UniProt Q9Y243)", "description": "as §1"}, "PRKCQ/PKCQ": {"target": "PRKCQ/PKCQ (Homo sapiens, UniProt Q04759)", "description": "as §1"}}, "data": [{"smiles": "C=CC(=O)N1CCC[C@@H](n2nc(-c3ccc(Oc4ccccc4)cc3)c3c(N)ncnc32)C1", "note": "[Ibrutinib]", "values": [{"measurement": "1 µM GBD00276 (ibrutinib), % inhibition", "setting": "ITK", "result": 38.79, "unit": "%"}, {"measurement": "1 µM GBD00276 (ibrutinib), % inhibition", "setting": "CSK", "result": 61.63, "unit": "%"}, {"measurement": "1 µM GBD00276 (ibrutinib), % inhibition", "setting": "IRAK1", "result": 5.215, "unit": "%"}, {"measurement": "1 µM GBD00276 (ibrutinib), % inhibition", "setting": "SRPK3/MSSK1", "result": 1.885, "unit": "%"}, {"measurement": "1 µM GBD00276 (ibrutinib), % inhibition", "setting": "MAP3K11", "result": -6.395, "unit": "%"}, {"measurement": "1 µM GBD00276 (ibrutinib), % inhibition", "setting": "ZNF33A/ZAK", "result": -3.326, "unit": "%"}, {"measurement": "1 µM GBD00276 (ibrutinib), % inhibition", "setting": "CAMK4", "result": 3.011, "unit": "%"}, {"measurement": "1 µM GBD00276 (ibrutinib), % inhibition", "setting": "EIF2AK3/PEK", "result": -3.047, "unit": "%"}, {"measurement": "1 µM GBD00276 (ibrutinib), % inhibition", "setting": "PLK1", "result": 6.704, "unit": "%"}, {"measurement": "1 µM GBD00276 (ibrutinib), % inhibition", "setting": "EIF2AK1/HRI", "result": -3.537, "unit": "%"}, {"measurement": "1 µM GBD00276 (ibrutinib), % inhibition", "setting": "MAP3K13", "result": -13.52, "unit": "%"}, {"measurement": "1 µM GBD00276 (ibrutinib), % inhibition", "setting": "PLK2", "result": -1.576, "unit": "%"}, {"measurement": "1 µM GBD00276 (ibrutinib), % inhibition", "setting": "MAPKAPK2/MK2", "result": 8.023, "unit": "%"}, {"measurement": "1 µM GBD00276 (ibrutinib), % inhibition", "setting": "PRKX", "result": 11.47, "unit": "%"}, {"measurement": "1 µM GBD00276 (ibrutinib), % inhibition", "setting": "SGK1", "result": -3.083, "unit": "%"}, {"measurement": "1 µM GBD00276 (ibrutinib), % inhibition", "setting": "EPHA6", "result": 17.71, "unit": "%"}, {"measurement": "1 µM GBD00276 (ibrutinib), % inhibition", "setting": "EEF2K", "result": 6.273, "unit": "%"}, {"measurement": "1 µM GBD00276 (ibrutinib), % inhibition", "setting": "MASTL", "result": -9.51, "unit": "%"}, {"measurement": "1 µM GBD00276 (ibrutinib), % inhibition", "setting": "KDR", "result": 29.01, "unit": "%"}, {"measurement": "1 µM GBD00276 (ibrutinib), % inhibition", "setting": "CAMK1G", "result": 11.1875, "unit": "%"}, {"measurement": "1 µM GBD00276 (ibrutinib), % inhibition", "setting": "EPHA3", "result": 12.32, "unit": "%"}, {"measurement": "1 µM GBD00276 (ibrutinib), % inhibition", "setting": "EPHA8", "result": 15.21, "unit": "%"}, {"measurement": "1 µM GBD00276 (ibrutinib), % inhibition", "setting": "PAK4", "result": 3.525, "unit": "%"}, {"measurement": "1 µM GBD00276 (ibrutinib), % inhibition", "setting": "CAMK2A", "result": 2.188, "unit": "%"}, {"measurement": "1 µM GBD00276 (ibrutinib), % inhibition", "setting": "CSNK1G1/CK1G1", "result": 4.449, "unit": "%"}, {"measurement": "1 µM GBD00276 (ibrutinib), % inhibition", "setting": "NEK11", "result": -9.805, "unit": "%"}, {"measurement": "1 µM GBD00276 (ibrutinib), % inhibition", "setting": "TNK2/ACK", "result": 31.95, "unit": "%"}, {"measurement": "1 µM GBD00276 (ibrutinib), % inhibition", "setting": "AURKC/AURC", "result": 2.291, "unit": "%"}, {"measurement": "1 µM GBD00276 (ibrutinib), % inhibition", "setting": "CSNK1A1/CK1A1", "result": 2.433, "unit": "%"}, {"measurement": "1 µM GBD00276 (ibrutinib), % inhibition", "setting": "CAMK2B", "result": 4.39, "unit": "%"}, {"measurement": "1 µM GBD00276 (ibrutinib), % inhibition", "setting": "YES", "result": 45.59, "unit": "%"}, {"measurement": "1 µM GBD00276 (ibrutinib), % inhibition", "setting": "CRIK/CIT", "result": -0.4372, "unit": "%"}, {"measurement": "1 µM GBD00276 (ibrutinib), % inhibition", "setting": "ERBB4/HER4", "result": 98.2, "unit": "%"}, {"measurement": "1 µM GBD00276 (ibrutinib), % inhibition", "setting": "RPS6KB2/P70S6KB", "result": -2.111, "unit": "%"}, {"measurement": "1 µM GBD00276 (ibrutinib), % inhibition", "setting": "CDK18", "result": 6.584, "unit": "%"}, {"measurement": "1 µM GBD00276 (ibrutinib), % inhibition", "setting": "SIK1", "result": 2.135, "unit": "%"}, {"measurement": "1 µM GBD00276 (ibrutinib), % inhibition", "setting": "AKT3", "result": 18.375, "unit": "%"}, {"measurement": "1 µM GBD00276 (ibrutinib), % inhibition", "setting": "PRKCQ/PKCQ", "result": 12.04, "unit": "%"}]}]}
